US7235262B2, “Use of bioactive fraction from cow urine distillate (‘Go-mutra’) as a bio-enhancer of anti-infective, anti-cancer agents and nutrients” (Council of Scientific and Industrial Research, priority 2000, dated 2007)
Values after ≈ are worked out from the molar mass of the structure shown. Where two headings read alike, the source gives them in different places.

Columns and labels:
Escherichia coli = assay: Broth assay for bio-enhancement of antibiotic killing, Gram-negative bacterium; settings: cow urine distillate 1 μl/mL
Protocol: (§1) For this, the cells are treated with compound for 4 to 8 hours and then washed free of it by centrifugation and washing in sterile water. This was followed by treatment with antibiotic as in steps b to d.
(§2) In the next step of elucidation of the enhancer action, the applicants experimented with the killing activities of different antibiotics against the bacteria singly and in combination with the test component (cow urine distillate) following the method described above. […] In all the experiments the cow urine distillate concentration was kept at 1 μl/mL unless it is specifically mentioned.

Bacillus subtilis = assay: Broth assay for bio-enhancement of antibiotic killing, Gram-positive bacterium; settings: cow urine distillate 1 μl/mL
Protocol: as §1, §2

Mycobacterium smegmatis = assay: Broth assay for bio-enhancement of antibiotic killing, Mycobacterium smegmatis; settings: antibiotic 0.5 μg/ml; cow urine distillate 1 μl/mL
Protocol: as §1, §2

fungal strains [1] = settings: active fraction Gm-IV, where present, at 10 μg/ml
Protocol: (§3) The methodology followed by us for this screening included specifically designed bioassays as described below.
as §1
(§4) The Concentration of the Active Fraction is Kept at 10 μg/ml.

fungal strains [2] = assay: organism not typed; settings: read-out: Minimum inhibitory Concentration (MIC)
Protocol: as §3, §1, §4

[3] = system: oxyR mutant of bacterium Escherichia coli; type: cell-based
[4] = Bioavailability test through biological membrane (U-tube); type: in vitro ADME, goat; settings: Rifampicin 1 mg/ml, Fraction Gm-IV (where present) 1.0 μg/ml
[5] = system: MCF-7 (Breast cancer cell line); type: cell-based; settings: for Final titre of viable cells upon treatment with taxol alone / Final titre of viable cells upon treatment with taxol + cow urine distillate: MCF-7, count after 36 hours; for Final titre of viable cells upon treatment with taxol + cow urine distillate: cow urine distillate 1 μl/ml

In the case of CC1(C)S[C@@H]2[C@H](NC(=O)[C@H](N)c3ccccc3)C(=O)N2[C@H]1C(=O)O [Ampicillin], the “Fold enhancement in antibiotic activity” value (Escherichia coli; antibiotic 4 μg/ml) is reported as 1.85, the “Fold enhancement in antibiotic activity” value (Escherichia coli; antibiotic 6 μg/ml) is reported as 4.50 and the “Fold enhancement in antibiotic activity” value (Escherichia coli; antibiotic 8 μg/ml) is reported as 5.00. The “Fold enhancement in antibiotic activity” value (Bacillus subtilis; antibiotic 0.1 μg/ml) was 3.3, the “Fold enhancement in antibiotic activity” value (Bacillus subtilis; antibiotic 0.5 μg/ml) was 3.0 and the “Fold enhancement in antibiotic activity” value (Mycobacterium smegmatis) was 11.6.

In the case of Clc1ccccc1C(c1ccccc1)(c1ccccc1)n1ccnc1 [Clotrimazol], the Fold enhancement (fungal strains [1]) is reported as 0.0 and the MIC (fungal strains [2]) is reported as 4.4 µg/mL (≈ 12.8 µM).

In the case of NNC(=O)c1ccncc1 [Isoniazid], the “enhancement action of the distillate for INH” value [3] is reported as “enhancement action”.

For CO[C@H]1/C=C/O[C@@]2(C)Oc3c(C)c(O)c4c(O)c(c(/C=N/N5CCN(C)CC5)c(O)c4c3C2=O)NC(=O)/C(C)=C\C=C\[C@H](C)[C@H](O)[C@@H](C)[C@@H](O)[C@@H](C)[C@H](OC(C)=O)[C@@H]1C [Rifampicin], the “OD measured as Absorbance across the membrane in receiving tube” value (“OD measured” for short) ([4]; A340, after 1 hr) was 0.0097, the “OD measured” value ([4]; A340, after 2 hr) was 0.0214 and the “OD measured” value ([4]; A340, after 4 hr) was 0.0771. The “OD measured” value ([4]; A340, after 5 hr) was 0.0858, the “OD measured” value ([4]; A340, after 6 hr) was 0.0910 and the “OD measured” value ([4]; A475, after 1 hr) was 0.0177. The “OD measured” value ([4]; A475, after 2 hr) was 0.0284, the “OD measured” value ([4]; A475, after 3 hr) was 0.0309 and the “OD measured” value ([4]; A475, after 4 hr) was 0.0412. The “OD measured” value ([4]; A475, after 5 hr) was 0.0484 and the “OD measured” value ([4]; A475, after 6 hr) was 0.0496.

For CC(=O)O[C@H]1C(=O)[C@@]2(C)[C@H]([C@H](OC(=O)c3ccccc3)[C@]3(O)C[C@H](OC(=O)[C@H](O)[C@@H](NC(=O)c4ccccc4)c4ccccc4)C(C)=C1C3(C)C)[C@]1(OC(C)=O)CO[C@@H]1C[C@@H]2O [Taxol, Paclitaxel], the “Final titre of viable cells upon treatment with taxol alone” value (“Final titre … with taxol alone” below) ([5]; Taxol 0.001 μg/ml) was 0.059 × 10^6, the “Final titre of viable cells upon treatment with taxol + cow urine distillate” value (“Final titre … with taxol + cow urine distillate” below) ([5]; Taxol 0.001 μg/ml) was 0.039 × 10^6 and the “Final titre … with taxol alone” value ([5]; Taxol 0.005 μg/ml) was 0.042 × 10^6. The “Final titre … with taxol + cow urine distillate” value ([5]; Taxol 0.005 μg/ml) was 0.032 × 10^6, the “Final titre … with taxol alone” value ([5]; Taxol 0.01 μg/ml) was 0.036 × 10^6 and the “Final titre … with taxol + cow urine distillate” value ([5]; Taxol 0.01 μg/ml) was 0.012 × 10^6. The “killing action of Taxol with cow urine distillate” value ([5]; cancerous cell line MCF-7) was “increased” and the “enhancement in the activity of taxol by the distillate” value ([5]; distillate at 1 μl/ml) was “at least 5 folds”.
